Results: US10870647B2, “Imidazopyridine derivative, method for preparing same, and pharmaceutical composition containing same as active ingredient for preventing or treating cancer” (DAEGU-GYEONGBUK MEDICAL INNOVATION FOUNDATION, priority 2016, dated 2020)
Like-named read-outs stand apart in the source and are kept apart here.

Tests used:
Assay type in all cases: cell-based
Huh7 = experiment: Cancer cell proliferation inhibition, MTS assay, 72 hours; settings: Homo sapiens, Huh-7
Protocol: (§1) MTS assay was performed to evaluate the cancer cell proliferation inhibition (cancer cell apoptosis) effect of the compounds of examples of the present invention. Particularly, the assay was performed using the cancer cell lines GIST-T1, GIST-T1/816, GIST-430, GIST-430/654, GIST-R1, GIST-R3, M-NFS-60, RetParental (Ba/F3), Retwt (Ba/F3), RetV804M (Ba/F3), RET (LC2/ad-CDC6), FYN (MCP-1), FYN (FN), MDA-MB-231, Huh7, K562, T315I(Ba/F3), SK-MEL-28 and A375. Cell culture was performed using a medium suitable for each cell line.
(§2) Other cell lines were seeded in a 96-well plate containing the corresponding medium appropriate for each cell line at the density of 3,000 cells/well, followed by culture in a 5% CO2 and 37° C. incubator for 24 hours. The compounds of examples of the present invention were added to each well at the concentration of from the highest volume of 50 μM to every step of serial dilution. The solvent control, dimethylsulfoxide (DMSO), was treated at the same concentration of 0.05% (v/v) as the volume used for the treatment of the compounds above. Each cell line was cultured for 72 hours. To investigate the cell viability, the MTS and PMS (phenazine methosulfate) mixture provided in CellTiter 96® AQuous Non-Radioactive Cell Proliferation Assay Kit (Promega) was added to each cell culture medium, followed by additional culture at 37° C. for 2 hours. Then, OD450 was measured. Based on OD of the solvent control cells not treated with any compounds of the present invention, the cell proliferation inhibition rate was calculated according to the treatment concentration of each compound. At this time, the concentration of each compound that was able to inhibit cancer cell proliferation up to 50% was determined as IC50 (uM). IC50 of each compound was determined with three data sets and calculated by using Prism softwater (version 6.01, GraphPad).

FYN (MCP-1) = experiment: as above
Protocol: as §1, §2

MDA-MB-231 = experiment: Real time cell proliferation, IncuCyte ZOOM, 72 hours
K562 = experiment: Cancer cell proliferation inhibition, CCK-8, 72 hours
Protocol: as §1
(§3) In the meantime, MDA-MB-231 and A375 cells were seeded in a 96well plate at the density of 2×10^3/100 μl/well, which stood for a day for attachment. The culture fluid was eliminated. After removing the culture medium, the medium was replaced with the culture medium containing the compounds of the present invention at 3-times serially diluted 9 concentrations (0.0015-10 μM) and the DMSO control, followed by incubation in a 37° C. CO2 incubator for 72 hours. On the other hand, K-562 and Ba/F3-T315I cells were seeded in a 96-well plate at the density of 1×10^4/90 μl/well. The plate containing K-562 cells was added with the culture medium containing the compounds of the present invention at 3-times serially diluted 9 concentrations (0.015-100 μM) and the DMSO control (10 μl/well). The plate containing Ba/F3-T315I cells was added with the culture medium containing the compounds of the present invention at 5-times serially diluted 9 concentrations (0.000256-100 μM) and the DMSO control (10 μl/well). The final concentration was made 0-10 μM and then the cells were cultured in a 37° C. CO2 incubator for 72 hours.
(§4) A375, K-562 and Ba/F3-T315I cells were added with CCK-8 solution at the concentration of 10 μl/well, followed by orbital shaking for 30 seconds. Then, the cells were cultured in a 37° C. CO2 incubator for 2 hours. OD450 was measured by using a microplate reader. The OD value of the well treated with the culture medium and CCK-8 solution alone was subtracted from the OD value measured above, followed by calculation of IC50 using GraphPad Prism 6 software.

A375 = experiment: as above
Protocol: as §1, §3, §4

T315I (Ba/F3) = biological target: T1, T315I (Ba/F3) (Homo sapiens, UniProt P00519, T315I, cells depend on it); experiment: as above; settings: read-out: T315I (Ba/F3) IC50
T1 construct: fused on or other part: P11274 (Breakpoint cluster region protein)
Protocol: as §1, §3, §4

M-NFS-60 = experiment: as above
Protocol: as §1
M-NFS-60 cell line was cultured in the complete growth medium prepared by adding 10% FBS, 0.05 mM 2-mercaptoethanol and 62 ng of human M-CSF to RPMI. When the confluence reached 80% in T-75 flask, the cells were collected in a 50 ml tube for seeding, followed by centrifugation at 800 rpm for 5 minutes. The cells were suspended in 10 mL of growth medium. The cell number was counted by using a hematocytometer to determine the necessary cell number and the medium volume for seeding. The cells were seeded in a 96-well plate at the density of 20000 cells/well (200 μL/well), followed by stabilization in a 37° C. CO2 incubator, while the compounds of the present invention were prepared. The compounds of the present invention were serially diluted with DMSO at the ratio of 1/3 with setting the maximum concentration at 1968 nM, which were loaded in a new V-bottom 96-well plate, resulting in the preparation of total 11 concentrations including the DMSO control. The cells that had been placed in the incubator were taken out, to which the compounds of the present invention were added (2 μl/well). The plate treated with the compounds was cultured in a 37° C. CO2 incubator for 72 hours. 72 hours later, the plate treated with the compounds was taken out, to which CCK-8 solution was treated (20 μl/well). After well mixing, the plate was further cultured in a 37° C. CO2 incubator for 2 hours. Then, OD450 was measured by using a microplate reader. To obtain accurate results, the wells displaying bubbles were eliminated from the measurement.

RET (LC2/ad-CDC6) = experiment: Cancer cell proliferation inhibition, MTS assay, 72 hours; settings: 72 h
Protocol: as §1, §2

SK-MEL-28 = experiment: as above; settings: Homo sapiens
Protocol: as §1, §2

Compound: Cc1ccc(C(=O)Nc2ccc(CN3CCN(C)[C@H](C)C3)c(C(F)(F)F)c2)cc1C#Cc1cnc2c(Nc3cnn(CCCN(C)C)c3)cccn12 [Example 34, (R)-3-((8-((1-(3-(dimethylamino)propyl)-1H-pyrazol-4-yl)amino)imidazo[1,2-a]pyridin-3-yl)ethynyl)-N-(4-((3,4-dimethylpiperazin-1-yl)methyl)-3-(trifluoromethyl)phenyl)-4-methylbenzamide]
- IC50 (Huh7): 70 nM
- IC50 (FYN (MCP-1)): 9830 nM
- IC50 (MDA-MB-231; Homo sapiens, MDA-MB-231, 72 h): 1010 nM
- IC50 (K562; Homo sapiens, K562, 72 h): < 1 nM
- IC50 (A375; Homo sapiens, A-375, 72 h): 903 nM
- GI50 (T315I (Ba/F3)): 831 nM

Compound: Cc1ccc(C(=O)Nc2ccc(CN3CC[C@H](N(C)C)C3)c(C(F)(F)F)c2)cc1C#Cc1cnc2c(Nc3cnn(C)c3)cccn12 [Example 51, (S)—N-(4-((3-(dimethylamino)pyrrolidin-1-yl)methyl)-3-(trifluoromethyl)phenyl)-4-methyl-3-((8-((1-methyl-1H-pyrazol-4-yl)amino)imidazo[1,2-a]pyridin-3-yl)ethynyl)benzamide]
- IC50 (M-NFS-60): 31.1 nM
- IC50 (Huh7): 87.8 nM
- IC50 (RET (LC2/ad-CDC6)): > 10 nM
- IC50 (MDA-MB-231; Homo sapiens, MDA-MB-231, 72 h): 319 nM
- IC50 (K562; Homo sapiens, K562, 72 h): < 1 nM
- IC50 (A375; Homo sapiens, A-375, 72 h): 249 nM
- GI50 (T315I (Ba/F3)): 28.8 nM

Compound: COCCn1cc(Nc2cccn3c(C#Cc4cc(C(=O)Nc5cc(C(C)(C)C(F)(F)F)on5)ccc4C)cnc23)cn1 [Example 58, 3-((8-((1-(2-methoxyethyl)-1H-pyrazol-4-yl)amino)imidazo[1,2-a]pyridin-3-yl)ethynyl)-4-methyl-N-(5-(1,1,1-trifluoro-2-methylpropan-2-yl)isoxazol-3-yl)benzamide]
- IC50 (FYN (MCP-1)): 320 nM
- IC50 (MDA-MB-231; Homo sapiens, MDA-MB-231, 72 h): 1300 nM
- IC50 (K562; Homo sapiens, K562, 72 h): 8 nM
- IC50 (A375; Homo sapiens, A-375, 72 h): 1390 nM
- GI50 (T315I (Ba/F3)): 32.6 nM

Compound: Cc1ccc(NC(=O)Nc2cccc(C(F)(F)F)c2)cc1C#Cc1cnc2c(Nc3cnn(C(C)C)c3)cccn12 [Example 83, 1-(3-((8-((1-isopropyl-1H-pyrazol-4-yl)amino)imidazo[1,2-a]pyridin-3-yl)ethynyl)-4-methylphenyl)-3-(3-(trifluoromethyl)phenyl)urea]
- IC50 (Huh7): 2180 nM
- IC50 (SK-MEL-28): 1440 nM
- IC50 (RET (LC2/ad-CDC6)): 1000 nM
- IC50 (MDA-MB-231; Homo sapiens, MDA-MB-231, 72 h): 5700 nM
- IC50 (K562; Homo sapiens, K562, 72 h): 20 nM
- IC50 (A375; Homo sapiens, A-375, 72 h): 5160 nM
- GI50 (T315I (Ba/F3)): 627 nM

Compound: Cc1ccc(NC(=O)Nc2cc(C(C)(C)C)on2)cc1C#Cc1cnc2c(Nc3cnn(C(C)C)c3)cccn12 [Example 84, 1-(5-(tert-butyl)isoxazol-3-yl)-3-(3-((8-((1-isopropyl-1H-pyrazol-4-yl)amino)imidazo[1,2-a]pyridin-3-yl)ethynyl)-4-methylphenyl)urea]
- IC50 (M-NFS-60): 1610 nM
- IC50 (Huh7): 5650 nM
- IC50 (SK-MEL-28): 4460 nM
- IC50 (RET (LC2/ad-CDC6)): 1000 nM
- IC50 (MDA-MB-231; Homo sapiens, MDA-MB-231, 72 h): > 10000 nM
- IC50 (K562; Homo sapiens, K562, 72 h): 90 nM
- IC50 (A375; Homo sapiens, A-375, 72 h): 5040 nM
- GI50 (T315I (Ba/F3)): 3070 nM

Compound: N-(4-((3-(dimethylamino)pyrrolidin-1-yl)methyl)-3-(trifluoromethyl)phenyl)-4-methyl-3-((8-((1-methyl-1H-pyrazol-4-yl)amino)imidazo[1,2-a]pyridin-3-yl)ethynyl)benzamide [Example 55]
- IC50 (FYN (MCP-1)): 5600 nM
- IC50 (MDA-MB-231): 755 nM
- IC50 (K562): < 1 nM
- IC50 (A375): 791 nM
- GI50 (T315I (Ba/F3)): 97.5 nM
